The values below come from patent US7687515B2, “6-phenyl-1H-imidazo[4,5-c]pyridine-4-carbonitrile derivatives” (priority 2006, dated 2010).

What is called pIC50 is −log10 of the IC50, conventionally taken in molar units.

pIC50: −log10 of the molar value. Where only a bound is given, the exact number is not on record here.

In this test the target is recombinant human Cathepsin S (Homo sapiens, UniProt P25774). Kind of test: Cathepsin S assay: inhibition of recombinant human Cathepsin S (Z-Val-Val-Arg-AMC fluorescence). It counts as biochemical. On the procedure: Cathepsin S Assay Procedure
Chain of recombinant human Cathepsin S (P25774 115-331): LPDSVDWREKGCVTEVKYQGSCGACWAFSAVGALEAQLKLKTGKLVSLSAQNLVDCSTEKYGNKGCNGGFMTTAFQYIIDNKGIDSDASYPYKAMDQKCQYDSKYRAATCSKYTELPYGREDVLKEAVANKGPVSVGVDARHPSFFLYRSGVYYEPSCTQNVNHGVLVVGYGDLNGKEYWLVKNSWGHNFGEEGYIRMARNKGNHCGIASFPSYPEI
25 μl of a 2 mg/l solution of activated recombinant human cathepsin S, in assay buffer, is then added to the well, yielding a final inhibitor concentration of 10 μM.
Enzyme activity is determined by measuring the fluorescence of the liberated aminomethylcoumarin at […] using 390 nm excitation, at 20 minutes. Percentage enzyme activity is calculated by comparison of this activity to that of a solution containing no inhibitor.
`CCOc1ccc(-c2cc3[nH]c(CN4CCN(CCOC)CC4)nc3c(C#N)n2)cc1C(F)(F)F` [Example 13i, 6-(4-Ethoxy-3-trifluoromethyl-phenyl)-2-[4-(2-methoxy-ethyl)-piperazin-1-yl-methyl]-1H-imidazo[4,5-c]pyridine-4-carbonitrile]: the pIC50 was above 7.00.
The figure for `CCOc1ccc(-c2cc3c(ncn3CCN3CCCCC3)c(C#N)n2)cc1C(F)(F)F` [Example 9d, 6-(4-Ethoxy-3-trifluoromethyl-phenyl)-1-(2-piperidin-1-yl-ethyl)-1H-imidazo[4,5-c]-pyridine-4-carbonitrile] is above 7.00; for `CCOc1ccc(-c2cc3c(ncn3CCN(C)C)c(C#N)n2)cc1C(F)(F)F` [Example 9f, 1-(2-Dimethylamino-ethyl)-6-(4-ethoxy-3-trifluoromethyl-phenyl)-1H-imidazo [4,5-c]pyridine-4-carbonitrile] it is above 7.00.
The figure for `CCOc1ccc(-c2cc3[nH]cnc3c(C#N)n2)cc1C(F)(F)F` [Example 1, 6-(4-Ethoxy-3-trifluoromethyl-phenyl)-1H-imidazo[4.5-c]pyridine-4-carbonitrile] is above 7.00; for `CCOc1ccc(-c2cc3c(ncn3CCN3CCOCC3)c(C#N)n2)cc1C(F)(F)F` [Example 9a, 6-(4-Ethoxy-3-trifluoromethyl-phenyl)-1-(2-morpholin-4-yl-ethyl)-1H-imidazo[4,5-c]pyridine-4-carbonitrile] it is above 7.00.
The figure for `CCOc1ccc(-c2cc3c(ncn3CCCN3CCOCC3)c(C#N)n2)cc1C(F)(F)F` [Example 10a, 6-(4-Ethoxy-3-trifluoromethyl-phenyl)-1-(3-morpholin-4-yl-propyl)-1H-imidazo[4,5-c]pyridine-4-carbonitrile] is above 7.00; for `CCOc1ccc(-c2cc3[nH]c(CN4CCN(C)CC4)nc3c(C#N)n2)cc1C(F)(F)F` [Example 11a, 6-(4-Ethoxy-3-trifluoromethyl-phenyl)-2-(4-methyl-piperazin-1-ylmethyl)-1H-imidazo-[4,5-c]pyridine-4-carbonitrile] it is above 7.00.
For the molecule `CCOc1ccc(-c2cc3[nH]c(CN4CCNC(=O)C4)nc3c(C#N)n2)cc1C(F)(F)F` [Example 5d, 6-(4-Ethoxy-3-trifluoromethyl-phenyl)-2-(3-oxo-piperazine-1-ylmethyl)-1H-imidazo[4,5,c]pyridine-4-carbonitrile], the pIC50 is above 7.00.
Consider `CCOc1ccc(-c2cc3c(ncn3CCCN(C)C)c(C#N)n2)cc1C(F)(F)F` [Example 10f, 1-(3-Dimethylamino-propyl)-6-(4-ethoxy-3-trifluoromethyl-phenyl)-1H-imidazo-[4,5-c]pyridine-4-carbonitrile], for which the pIC50 was above 7.00.
Regarding `CCOc1ccc(-c2cc3c(ncn3CC(=O)O)c(C#N)n2)cc1C(F)(F)F` [Example 3, [4-Cyano-6-(4-ethoxy-3-trifluoromethyl-phenyl)-imidazo[4,5-c]pyridin-1-yl]-acetic acid], the pIC50 is above 7.00.
The value for `CCOc1ccc(-c2cc3[nH]c(CNCCO)nc3c(C#N)n2)cc1C(F)(F)F` [Example 11h, 6-(4-Ethoxy-3-trifluoromethyl-phenyl)-2-[(2-hydroxy-ethylamino)-methyl]-1H-imidazo[4,5-c]pyridine-4-carbonitrile] was above 7.00.
The value for `CCOc1ccc(-c2cc3[nH]c(CN4CNC(=O)C4)nc3c(C#N)n2)cc1C(F)(F)F` [Example 13d, 6-(4-Ethoxy-3-trifluoromethyl-phenyl)-2-(4-oxo-imidazolidin-1-ylmethyl)-1H-imidazo[4,5-c]pyridine-4-carbonitrile] was above 7.00.
